Here are results for 21 compounds from patent US11312719B2, “9-substituted amino triazolo quinazoline derivatives as adenosine receptor antagonists, pharmaceutical compositions and their use” (Merck Sharp & Dohme Corp., priority 2018, dated 2022).

In test [1] the target is human A2b adenosine receptor (Homo sapiens (Human), UniProt P29275). Nature of the test: A2b radioligand filtration binding assay. The following applies: membranes from HEK293 cells expressing human A2b receptor. In outline:
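Membranes from HEK293 cells expressing human A2b receptor preincubated with compound 15 to 30 min at room temperature, then tritiated proprietary A2b antagonist (diluted to 14 nM before addition) added in PBS pH 7.4 for 60 min at room temperature. Bound radioactivity by filtration and scintillation; non-specific binding with 20 μM NECA; IC50 by 4-parameter logistic fit.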

The target in test [2] is human A2a adenosine receptor (Homo sapiens (Human), UniProt P29274). Nature of the test: A2a receptor affinity radioligand binding assay ([3H] SCH58261). Conditions: for IC50: membranes from HEK293 or CHO cells expressing human A2a receptor. In short, it runs like this:
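Membranes from HEK293 or CHO cells expressing human A2a were preincubated 15–30 min at room temperature with compound, then incubated 60 min at room temperature with [3H]SCH58261 (diluted to 4 nM) in 50 mM Tris pH 7.4, 10 mM MgCl2, 0.005% Tween20. Bound radioactivity was collected by filtration; nonspecific binding defined with 1 μM ZM241385; IC50 from 4-parameter logistic fit.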

human A2b adenosine receptor, sequence (P29275 whole entry): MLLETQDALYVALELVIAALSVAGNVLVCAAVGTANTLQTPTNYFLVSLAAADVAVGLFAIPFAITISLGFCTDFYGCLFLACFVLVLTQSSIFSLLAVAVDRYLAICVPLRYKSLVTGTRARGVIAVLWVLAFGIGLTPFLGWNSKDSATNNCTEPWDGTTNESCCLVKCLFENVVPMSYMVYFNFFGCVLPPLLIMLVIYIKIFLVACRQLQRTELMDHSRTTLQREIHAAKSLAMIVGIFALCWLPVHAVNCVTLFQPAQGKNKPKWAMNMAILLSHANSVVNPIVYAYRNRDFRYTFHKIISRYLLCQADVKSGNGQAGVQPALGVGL
human A2a adenosine receptor, sequence (P29274 whole entry): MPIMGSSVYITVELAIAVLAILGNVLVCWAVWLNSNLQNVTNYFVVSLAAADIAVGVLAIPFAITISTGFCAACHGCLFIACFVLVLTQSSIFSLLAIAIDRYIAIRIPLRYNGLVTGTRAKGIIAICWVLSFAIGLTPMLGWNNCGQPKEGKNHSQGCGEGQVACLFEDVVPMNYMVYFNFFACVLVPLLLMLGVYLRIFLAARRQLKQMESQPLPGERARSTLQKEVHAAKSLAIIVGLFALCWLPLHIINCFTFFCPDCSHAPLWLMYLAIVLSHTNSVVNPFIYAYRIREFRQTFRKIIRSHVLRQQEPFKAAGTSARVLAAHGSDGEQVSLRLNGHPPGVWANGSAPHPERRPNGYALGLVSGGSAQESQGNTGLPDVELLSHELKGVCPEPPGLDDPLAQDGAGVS

One may read the IC50 as the concentration at which inhibition is half-maximal. Consider `COc1cc(F)cc2c1nc(N)n1nc([C@@H]3CCCN(c4cn(C(C)C(C)(C)O)nc4C)C3)nc21` (single isomer, unassigned) [Example 86, (S or R)-3-(4-((R)-3-(5-amino-9-fluoro-7-methoxy-[1,2,4]triazolo[1,5-c]quinazolin-2-yl)piperidin-1-yl)-3-methyl-1H-pyrazol-1-yl)-2-methylbutan-2-ol], for which the IC50 is 165 nM in test [1] and 0.3 nM in test [2].

Regarding `COc1cc(F)cc2c1nc(N)n1nc([C@@H]3CCCN(c4cn(C(C)C(C)(C)O)nc4C)C3)nc21` (single isomer, unassigned) [Example 87, (R or S)-3-(4-((R)-3-(5-amino-9-fluoro-7-methoxy-[1,2,4]triazolo[1,5-c]quinazolin-2-yl)piperidin-1-yl)-3-methyl-1H-pyrazol-1-yl)-2-methylbutan-2-ol], the IC50 in test [1] is 134 nM; in test [2] it was 0.4 nM.

Turning to `COc1cc2nc(N)n3nc(C4CCC(C)N(c5cnn(C6CCCC6O)c5)C4)nc3c2cc1F` (single isomer, unassigned) [Example 88, (1R or 1S,2R or 2S)-2-(4-((2S,5R or 2R,5S)-5-(5-amino-9-fluoro-8-methoxy-[1,2,4]triazolo[1,5-c]quinazolin-2-yl)-2-methylpiperidin-1-yl)-1H-pyrazol-1-yl)cyclopentan-1-ol], the IC50 in test [1] was determined as 1.8 nM; in test [2], 0.1 nM.

In the case of `COc1cc2nc(N)n3nc(C4CCC(C)N(c5cnn(C6CCCC6O)c5)C4)nc3c2cc1F` (single isomer, unassigned) [Example 89, (1S or 1R,2S or 2R)-2-(4-((2S,5R or 2R,5S)-5-(5-amino-9-fluoro-8-methoxy-[1,2,4]triazolo[1,5-c]quinazolin-2-yl)-2-methylpiperidin-1-yl)-1H-pyrazol-1-yl)cyclopentan-1-ol], the IC50 was 3.4 nM in test [1] and 0.2 nM in test [2].

Consider `COc1cc2nc(N)n3nc([C@@H]4C[C@H](C)CN(c5cnn(CC(C)(C)O)c5)C4)nc3c2cc1F` (single isomer, unassigned) [Example 90, 1-(4-((3R,5S or 3S,5R)-3-(5-amino-9-fluoro-8-methoxy-[1,2,4]triazolo[1,5-c]quinazolin-2-yl)-5-methylpiperidin-1-yl)-1H-pyrazol-1-yl)-2-methylpropan-2-ol], for which the IC50 in test [1] was 29 nM; in test [2], 1.2 nM.

As for `COc1cc2nc(N)n3nc([C@H]4C[C@@H](C)CN(c5cnn(CC(C)(C)O)c5)C4)nc3c2cc1F` (single isomer, unassigned) [Example 91, 1-(4-((3S,5R or 3R,5S)-3-(5-amino-9-fluoro-8-methoxy-[1,2,4]triazolo[1,5-c]quinazolin-2-yl)-5-methylpiperidin-1-yl)-1H-pyrazol-1-yl)-2-methylpropan-2-ol], the results for the IC50 in test [1] and in test [2] were 4620 nM and 44.7 nM, respectively.

For `COc1cc2nc(N)n3nc([C@@H]4C[C@@H](C)CN(c5cnn(CC(C)(C)O)c5)C4)nc3c2cc1F` (single isomer, unassigned) [Example 92, rac-1-(4-((3R,5R or 3S,5S)-3-(5-amino-9-fluoro-8-methoxy-[1,2,4]triazolo[1,5-c]quinazolin-2-yl)-5-methylpiperidin-1-yl)-1H-pyrazol-1-yl)-2-methylpropan-2-ol], the IC50 in test [1] was determined as 602 nM; in test [2], 10.9 nM.

As for `COc1cc2nc(N)n3nc([C@@H]4CCCN(c5cnn(CCCC(C)O)c5)C4)nc3c2cc1F` (single isomer, unassigned) [Example 94, (S or R)-5-(4-((R)-3-(5-amino-9-fluoro-8-methoxy-[1,2,4]triazolo[1,5-c]quinazolin-2-yl)piperidin-1-yl)-1H-pyrazol-1-yl)pentan-2-ol], the results for the IC50 in test [1] and in test [2] were 752 nM and 7.8 nM, respectively.

For the compound `COc1cc2nc(N)n3nc([C@@H]4CCCN(c5cnn(CCCC(C)O)c5)C4)nc3c2cc1F` (single isomer, unassigned) [Example 95, (R or S)-5-(4-((R)-3-(5-amino-9-fluoro-8-methoxy-[1,2,4]triazolo[1,5-c]quinazolin-2-yl)piperidin-1-yl)-1H-pyrazol-1-yl)pentan-2-ol], the IC50 amounted to 5040 nM in test [1] and 205 nM in test [2].

As for `COc1cc2nc(N)n3nc([C@@H]4CC[C@H](C)N(c5cnn(C6CCC(C)(O)CC6)c5)C4)nc3c2cc1F` (single isomer, unassigned) [Example 96, rac-(1r,4s or 1r,4r)-4-(4-((2S,5R or 2R,5S)-5-(5-amino-9-fluoro-8-methoxy-[1,2,4]triazolo[1,5-c]quinazolin-2-yl)-2-methylpiperidin-1-yl)-1H-pyrazol-1-yl)-1-methylcyclohexan-1-ol], the results for the IC50 in test [1] and in test [2] were 24.6 nM and 0.7 nM, respectively.

In the case of `COc1cc2nc(N)n3nc([C@@H]4CC[C@H](C)N(c5cnn(C6CCC(C)(O)CC6)c5)C4)nc3c2cc1F` (single isomer, unassigned) [Example 97, rac-(1r,4r or 1r,4s)-4-(4-((2S,5R or 2R,5S)-5-(5-amino-9-fluoro-8-methoxy-[1,2,4]triazolo[1,5-c]quinazolin-2-yl)-2-methylpiperidin-1-yl)-1H-pyrazol-1-yl)-1-methylcyclohexan-1-ol], the IC50 in test [1] amounted to 33.3 nM; in test [2], 0.6 nM.

Regarding `COc1cc2nc(N)n3nc([C@@H]4CCCN(c5cnn([C@H]6CC[C@]6(C)O)c5)C4)nc3c2cc1F` (single isomer, unassigned) [Example 98, (1S or 1R,2S or 2R)-2-(4-((R)-3-(5-amino-9-fluoro-8-methoxy-[1,2,4]triazolo[1,5-c]quinazolin-2-yl)piperidin-1-yl)-1H-pyrazol-1-yl)-1-methylcyclobutan-1-ol], the IC50 in test [1] turned out to be 116 nM; in test [2] it was 0.9 nM.

With `COc1cc2nc(N)n3nc([C@@H]4CCCN(c5cnn([C@@H]6CC[C@@]6(C)O)c5)C4)nc3c2cc1F` (single isomer, unassigned) [Example 99, (1R or 1S,2R or 2S)-2-(4-((R)-3-(5-amino-9-fluoro-8-methoxy-[1,2,4]triazolo[1,5-c]quinazolin-2-yl)piperidin-1-yl)-1H-pyrazol-1-yl)-1-methylcyclobutan-1-ol], the IC50 in test [1] worked out at 231 nM; in test [2], 4.4 nM.

As for `Cn1cc(N2CCCC(c3nc4c5cc(F)c(F)cc5nc(N)n4n3)C2)cn1` (single isomer, unassigned) [Example 101, (R or S)-8,9-difluoro-2-(1-(1-methyl-1H-pyrazol-4-yl)piperidin-3-yl)-[1,2,4]triazolo[1,5-c]quinazolin-5-amine], the figures for the IC50 in test [1] and in test [2] were 390 nM and 32.7 nM, respectively.

Turning to `Cn1cc(N2CCCC(c3nc4c5cc(F)ccc5nc(N)n4n3)C2)cn1` (single isomer, unassigned) [Example 102, (R or S)-9-fluoro-2-(1-(1-methyl-1H-pyrazol-4-yl)piperidin-3-yl)-[1,2,4]triazolo[1,5-c]quinazolin-5-amine], the IC50 in test [1] was found to be 539 nM; in test [2], 104 nM.

In the case of `Cn1cc(N2CCCC(c3nc4c5cc(F)cc(F)c5nc(N)n4n3)C2)cn1` (single isomer, unassigned) [Example 103, (R or S)-7,9-difluoro-2-(1-(1-methyl-1H-pyrazol-4-yl)piperidin-3-yl)-[1,2,4]triazolo[1,5-c]quinazolin-5-amine], the values for the IC50 in test [1] and in test [2] were 137 nM and 0.5 nM, respectively.

With `COc1cc(Cl)cc2c1nc(N)n1nc(C3CCCN(c4cnn(C)c4)C3)nc21` (single isomer, unassigned) [Example 104, (R or S)-9-chloro-7-methoxy-2-(1-(1-methyl-1H-pyrazol-4-yl)piperidin-3-yl)-[1,2,4]triazolo[1,5-c]quinazolin-5-amine], the IC50 amounted to 766 nM in test [1] and 17.7 nM in test [2].

Take `Cc1cc(Cl)cc2c1nc(N)n1nc(C3CCCN(c4cnn(C)c4)C3)nc21` (single isomer, unassigned) [Example 105, (R or S)-9-chloro-7-methyl-2-(1-(1-methyl-1H-pyrazol-4-yl)piperidin-3-yl)-[1,2,4]triazolo[1,5-c]quinazolin-5-amine]: the IC50 in test [1] was 743 nM; in test [2], 329 nM.

With `Cn1cc(N2CCCC(c3nc4c5cc(Cl)ccc5nc(N)n4n3)C2)cn1` (single isomer, unassigned) [Example 106, (R or S)-9-chloro-2-(1-(1-methyl-1H-pyrazol-4-yl)piperidin-3-yl)-[1,2,4]triazolo[1,5-c]quinazolin-5-amine], the IC50 in test [1] turned out to be 430 nM; in test [2], 316 nM.

In the case of `Cn1cc(N2CCCC(c3nc4c5c(F)c(F)ccc5nc(N)n4n3)C2)cn1` (single isomer, unassigned) [Example 107, (R or S)-9,10-difluoro-2-(1-(1-methyl-1H-pyrazol-4-yl)piperidin-3-yl)-[1,2,4]triazolo[1,5-c]quinazolin-5-amine], the IC50 in test [1] worked out at 1520 nM; in test [2], 127 nM.

`COc1ccc2nc(N)n3nc(C4CCCN(c5cnn(C)c5)C4)nc3c2c1` (single isomer, unassigned) [Example 108, (R or S)-9-methoxy-2-(1-(1-methyl-1H-pyrazol-4-yl)piperidin-3-yl)-[1,2,4]triazolo[1,5-c]quinazolin-5-amine] showed an IC50 in test [1] of 8470 nM. Further, the “A2A binding % Inh. @ 1000 nM” value in test [2] (@ 1000 nM) came to 36% Inh.
